In patent publication US11976091B2, “Terpene glycoside derivatives and uses thereof” (Firmenich SA, priority 2018, dated 2024):

Columns and labels:
[1] = test system: panel of 8 trained people; test: Sensory evaluation of taste properties (descriptive), samples in 4% w/w sucrose solution; format: in vivo; conditions: for Description (taste properties: sweet, licorice and sweet lingering): panel of 8 trained people
Protocol: A composition comprising Compound I was generated according to the methods described in Example 1. The composition was dissolved in a 4% w/w sucrose solution, at a final concentration of 30 ppm. A panel of 8 trained people evaluated the test solution, as well as samples comprising rebaudioside A, rebaudioside D, or rebaudioside M for taste properties (sweet, licorice and sweet lingering).

[2] = test system: panel of 8 trained people; test: Sensory evaluation of taste properties on a scale of −5 to 5 versus 4% w/w sucrose reference solution; format: in vivo; conditions: for Licorice / Sweet / Sweet Lingering: 30 ppm in 4% w/w sucrose solution, scale −5 to 5 (−5 no effect, 5 extremely strong effect, 0 = 4% w/w sucrose reference); for tastes enhanced in the 4% sucrose base: 30 ppm in 4% sucrose base
Protocol: In another experiment, a composition comprising compound of formula I was generated according to the methods described in Example 1. The composition was dissolved in a 4% w/w sucrose solution. A panel of 8 trained people evaluated the test solutions for taste properties (sweet, licorice and sweet lingering) on a scale of −5 to 5 (−5 denoted no effect and 5 denoted extremely strong effect, 0 being the intensity of a reference water solution containing either (i) 4% w/w sucrose solution. The results are shown in the table below.

[3] = 30 ppm in 4% w/w sucrose solution

SMILES | Description (taste properties: sweet, licorice and sweet lingering) [1, 3] | Licorice [2] | Sweet [2] | Sweet Lingering [2] | tastes enhanced in the 4% sucrose base [2] | licorice taste compared to the other samples [1, 3] | effect for licorice and sweet lingering tastes ([2]; dosage of 30 ppm in 4% sucrose base) | effect on sweet intensity in the 4% sucrose base ([2]; dosage of 30 ppm, 95% of confidence level) | lingering taste compared to the others ([1]; 30 ppm test samples in 4% w/w sucrose solution)
C=C1C[C@@]23CC[C@H]4[C@@](C)(CCC[C@@]4(C)C(=O)O[C@@H]4O[C@H](CO)[C@@H](O)[C@H](O)[C@H]4O[C@@H]4O[C@H](CO)[C@@H](O)[C@H](O)[C@H]4O)[C@@H]2CC[C@]1(O[C@@H]1O[C@H](CO)[C@@H](O)[C@H](O[C@@H]2O[C@H](CO)[C@@H](O)[C@H](O)[C@H]2O)[C@H]1O[C@@H]1O[C@H](CO)[C@@H](O)[C@H](O)[C@H]1O)C3 [Reb D, rebaudioside D] | Sweet, lingering, licorice | 1.3 | 1.5 | 0.4 | – | – | – | – | –
C=C1C[C@@]23CC[C@H]4[C@@](C)(CCC[C@@]4(C)C(=O)O[C@@H]4O[C@H](CO)[C@@H](O)[C@H](O)[C@H]4O)[C@@H]2CC[C@]1(O[C@@H]1O[C@H](CO)[C@@H](O)[C@H](O[C@@H]2O[C@H](CO)[C@@H](O)[C@H](O)[C@H]2O)[C@H]1O[C@@H]1O[C@H](CO)[C@@H](O)[C@H](O)[C@H]1O)C3 [Reb A, rebaudioside A] | Sweet, licorice, lingering, slightly | 1.3 | 1.5 | 0.5 | enhancing sweet and sweet lingering tastes | – | – | – | –
C=C1C[C@@]23CC[C@H]4[C@@](C)(CCC[C@@]4(C)C(=O)O[C@@H]4O[C@H](CO)[C@@H](O)[C@H](O[C@@H]5O[C@H](CO)[C@@H](O)[C@H](O)[C@H]5O)[C@H]4O[C@@H]4O[C@H](CO)[C@@H](O)[C@H](O)[C@H]4O)[C@@H]2CC[C@]1(O[C@@H]1O[C@H](CO)[C@@H](O)[C@H](O[C@@H]2O[C@H](CO)[C@@H](O)[C@H](O)[C@H]2O)[C@H]1O[C@@H]1O[C@H](CO)[C@@H](O)[C@H](O)[C@H]1O)C3 [Reb M, rebaudioside M] | Licorice, sweet, lingering | 1.3 | 1.6 | 0.8 | enhancing all sweet, licorice and sweet lingering tastes | stronger licorice taste | – | – | –
C=C1C[C@@]23CC[C@H]4[C@@](C)(CCC[C@@]4(C)C(=O)O[C@@H]4OC(CO[C@@H]5OC(CO)[C@@H](O)C(O)C5O)[C@@H](O)C(O)C4O)[C@@H]2CC[C@]1(O[C@@H]1OC(CO)[C@@H](O)C(O[C@@H]2OC(CO)[C@@H](O)C(O)C2O)C1O[C@@H]1OC(CO)[C@@H](O)C(O)C1O)C3 (some centres unmarked) [Compound I] | Sweet, licorice, lingering | 1.4 | 1.1 | 0.4 | – | – | without any significant effect | significantly enhanced | –
OC[C@H]1O[C@@](CO)(O[C@H]2O[C@H](CO)[C@@H](O)[C@H](O)[C@H]2O)[C@@H](O)[C@@H]1O [Sucrose, sucrose] | Sweet, slightly lingering | – | – | – | – | – | – | – | weaker lingering taste than others
